Data from paper PMC4213378, “Pharmacokinetics and Efficacy of the Spleen Tyrosine Kinase Inhibitor R406 after Ocular Delivery for Retinoblastoma” (Pharmaceutical Research, 2014).

Experiments:
[1] = Vitreous pharmacokinetics after oral or subconjunctival administration; type: in vivo, mouse
Description: For oral delivery of R788, the target dose of 25 mg/kg R788 was administered by oral gavage as a 4 mM solution in 0.01 N citrate buffer, pH 6 ([9]). For subconjunctival administration, R788 was prepared at a concentration of 4 mM in 2% PEG-800 and filtered through a 0.22 μm filter prior to use (see Table S1). R788 was also administered subconjunctivally as a suspension at a concentration of 25 mM in 10% 2-hydroxylpropyl-β-cyclodextrin (HPβCD, Sigma-Aldrich). For subconjunctival administration, R406 phenylsulfonate salt was administered at a concentration of 800–900 μM as a cosolvent solution in a formulation of 5% Cremaphor-eL, 0.5% ethanol, 0.2% Tween 80 and 94.3% PBS, filtered through a 0.22 μm filter prior to use (see Table S2). R406 phenylsulfonate salt was also administered subconjunctivally at a dose of 31.4 mM solution in DMSO. R406 free base was administered subconjunctivally at a concentration of 6.5 mM as a 25% castor oil (Sigma-Aldrich) emulsion. This emulsion was prepared by mixing castor oil: ethanol (1:1) solution of R406 (approx. 35 mM), in vacuo evaporation of the ethanol, and centrifugation to remove any excess R406, then emulsifying the R406 oil phase in an aqueous phase comprised of Cremaphor-eL, Tween 80 and PBS (final composition of the emulsion: 25% castor oil, 5% Cremaphor-eL, 0.2% Tween-80, 69.8% PBS) by probe sonication. For intravitreal injection, R788 solution was prepared by filtering a 0.12 mM (120 μM) solution of R788 in saline through a 0.22 μm filter. […] For topical delivery, 25–30 mM suspensions were prepared in 5% HPβCD. R406 or R788 concentration in all formulations was determined by UPLC prior to study (in cases where formulation was filtered before administration, concentration was determined post-filtering) Table I.
For the systemic delivery study R788 was administered as a single bolus dose (25 mg/kg, 10 mL/kg volume) by oral gavage. For the subconjunctival administration study R788 or R406 (10 µL of formulation) was injected into the subconjunctival space of an anesthetized mouse using a Hamilton microliter syringe (Hamilton company, Reno NV). For the intravitreal administration study, R788 (5 μL of […] in saline) was administered to each eye via direct injection. To perform the intravitreal injection, mice were anesthetized, a small incision between the sclera and the cornea was created with a […] needle, and the R788 was injected into the vitreous using a Hamilton microliter syringe. For the topical administration study, R406 (2 μL of 25–30 mM suspension) was applied as a drop to the surface of each eye of an anesthetized mouse.
At serial time points (0.5, 1, 2, 4, and 8 h post-injection, n = 3 for each time point), blood was collected by terminal cardiac puncture after isoflurane anesthesia. Whole-blood samples were centrifuged immediately at 10,000×g for 5 min at 4°C to separate plasma. Once the cardiac puncture and blood collection was completed, the animal was perfused with 10 mL of saline and euthanized by cervical dislocation. Eyes were removed, rinsed in PBS, gently patted dry, then rinsed and dried again. Eyes were dissected and vitreous was collected. Plasma and vitreous samples were put on dry ice immediately after collection and stored at −80°C until analysis. For quantitative analysis methods and assay validation methods and results, see Supplementary Information.
Plasma and vitreous concentration time data were analyzed using non-compartmental analysis in WinNonlin 6.2 (Pharsight, Mountain View, CA), providing PK parameters including Cmax (maximum observed concentration), Tmax (time to reach maximum observed concentration), AUC (area under the concentration time curve) and MRT (mean residence time). AUC and AUMC (area under the concentration time first moment curve) values were estimated with the linear trapezoidal method, with parameters calculated using mean concentration values at each time point. […]

RB355 cells = test: EdU incorporation (DNA synthesis) in RB355 cells; type: cell-based; details: 5 μM R406, 0-72 h exposure
Description: To determine if the lack of evidence of efficacy of subconjunctival R406 in a solution formulation was due to suboptimal ocular exposure, we performed a pharmacokinetic experiment. Briefly, 10 μl of R406 solution formulation was delivered to each eye of 15 mice and the plasma and vitreous were harvested at different time points (0.5, 1, 2, 4, and 8 h). The concentration of R406 was measured at each time point in each tissue and the concentration of drug was plotted as a function of time (Fig. 2). The 4 h and 8 h data are not shown, as the majority of R406 concentrations in these samples were BLOQ. […] Importantly, the maximal concentration achieved (0.05 μM) was well below the concentration required to kill the most sensitive retinoblastoma cell line (RB355 in culture, Fig. S3). RB355 cells in culture were treated with DMSO, 1, 2.5, or 5 μM of R406 for varied exposure durations (0, 6, 12, 24, 48 and 72 h). […] Incorporation of 5-ethynyl-2′-deoxyuridine (EdU) was used to detect DNA synthesis. […] Viability of RB355 cells in culture is reduced to 50% of the viability of DMSO treated cells when exposed to 2.5 μM R406 for an exposure duration between 24 and 48 h or 5 μM R406 for an exposure duration between 12 and 24 h.
RB335 cells were seeded in 6-well dishes. […] Luminescence was read after 15 min on an Envision plate reader (Perkin Elmer). […]

[2] = local (subconjunctival), DMSO 31.4 mM, 314 nmol per eye, mice
[3] = local (subconjunctival), co-solvent solution 0.88 mM, 8.8 nmol per eye, mice

SMILES	ratio of vitreous AUC to plasma AUC relative to R788 in suspension (250 nmol per eye) ([1]; R406 salt administered locally, 314 nmol total per eye) [fold]	Cmax [1, 2] [nM]	Ratio Vitreous AUClast/Plasma AUClast [1, 2]	Vitreous AUClast [1, 2]	Vitreous Dose normalized AUC [1, 2] [nM∙h/nmol]	Vitreous MRT0-4h [1, 2] [h]	Vitreous Tlast [1, 2] [h]	Vitreous Tmax [1, 2] [min]	Vitreous MRT0-4h ([1]; local (subconjunctival), DMSO 31.4 mM, 314 nmol per eye, mice, listed as R406 salt) [h]	Cmax [1, 3] [nM]	Vitreous AUClast [1, 3] [nM·h]	Vitreous Dose normalized AUC [1, 3] [nM∙h/nmol]	Vitreous MRT0-4h [1, 3] [h]	Vitreous Tlast [1, 3] [h]	Vitreous Tmax [1, 3] [min]	Vitreous MRT0-4h ([1]; local (subconjunctival), co-solvent solution 0.88 mM, 8.8 nmol per eye, mice, listed as R406 salt)	maximum intraocular concentration that could be reached from subconjunctival route ([1]; DMSO control, 31.4 mM R406 in DMSO, subconjunctival, mice)	maximal concentration achieved in the vitreous ([1]; subconjunctival, 10 μl of R406 solution formulation per eye, mice) [µM]	proportion of cells that incorporated EdU (RB355 cells)
COc1cc(Nc2ncc(F)c(Nc3ccc4c(n3)NC(=O)C(C)(C)O4)n2)cc(OC)c1OC.O=S(=O)(O)c1ccccc1 [R406 phenylsulfonate salt]	22	892 ± 350	6.6	1,960 nM∙h	3.1	2.02	4	30	≥ 2	41.3 ± 18	33.7	1.9	0.782	2	30	less than 1 h	–	–	–
COc1cc(Nc2ncc(F)c(Nc3ccc4c(n3)NC(=O)C(C)(C)O4)n2)cc(OC)c1OC [R406]	–	–	–	–	–	–	–	–	–	–	–	–	–	–	–	–	approximately 1 μM	0.05	decreased with increasing exposure time
